Laboratory results as given in article PMC12384225, “Piezo1 Channel Activators Yoda1 and Yoda2 in the Context of Red Blood Cells” (Biomolecules, 2025).
pEC50: −log10 of the molar value.

Experiments:
Piezo1 channel = biological target: T1, Piezo1 channel (Homo sapiens, UniProt Q92508); assay: Automated whole-cell patch clamp (SyncroPatch 384) of Piezo1-mediated currents in RBCs; format: cell-based; settings: for responding cells out of total valid cells / responding cells out of total valid cells (any concentration) / concentration at which the response plateaus: +80 mV; for responding cells out of total valid cells (any concentration): current > baseline + 3σ at any concentration, N = 3; for pEC50: human RBCs, responders only, current at +80 mV normalised to baseline, cumulative concentrations, Hill fit, room temperature; for concentration at which the response plateaus: normalised concentration-response curves
T1 construct: endogenous in cells; host or cells: human red blood cells (RBCs) from donor blood
Procedure: Whole-cell patch clamp recordings were performed using the SyncroPatch 384 (Nanion Technologies, Munich, Germany) as previously described. Experiments were conducted at room temperature using NPC-384 single-hole microchips with resistances ranging from 6 to 10 MΩ. Recording solutions contained (in mM) 110 KF, 10 KCl, 10 NaCl, 10 EGTA, and 10 HEPES, pH 7.2 (KOH) (internal); and 140 NaCl, 4 KCl, 2 CaCl2, 1 MgCl2, 5 D-glucose monohydrate, and 10 HEPES, pH 7.4 (NaOH) (external). Data acquisition was conducted using PatchControl384 v3.2.2 (Nanion Technologies, Munich, Germany), sampled at 10 kHz.
Piezo1-mediated currents were elicited using a voltage ramp protocol ranging from −100 mV to +80 mV over 450 ms, applied every 10 s, with a holding potential set at −30 mV. After establishing a stable baseline current in the external solution, cells were exposed to increasing concentrations of either Yoda1 or Yoda2 (Tocris Bioscience, Bristol, UK) in a cumulative manner: 41 nM, 144 nM, 442 nM, 1.33 μM, 4 μM, and 8 μM. To block channel activity, 30 μM GdCl3 (Sigma-Aldrich, Merck KGaA, Taufkirchen, Germany, a non-selective ion channel inhibitor, was subsequently applied.
RBCs were classified as responders if the mean current amplitude in the presence of the compound exceeded the mean current at baseline conditions by more than three times the standard deviation of the baseline (3σ). For EC50 determination, current amplitudes at each concentration were normalised to the baseline current, and dose–response curves were fitted using the Hill equation.

[1] = tested on: membrane potential of RBCs (Gárdos channel activity); assay: Membrane potential measurement (MBE method), hyperpolarisation by Gárdos channel activity; format: cell-based, human; settings: magnitude of membrane hyperpolarisation ΔVm, Hill fit
Procedure: The membrane potential of RBCs was measured using a method originally described by Macey et al., subsequently refined by Poul Bennekou, e.g., [27], and later optimised by the group of Stéphane Egée, e.g., [28]. As such, the method is referred to as the MBE method after the three scientists who most contributed to it. For each experiment, a 2 mL microcentrifuge tube was prepared with 1 mL of Ringer solution containing (in mM) 153 NaCl, 2 KCl, and 4 CaCl2. All reagents were of analytical grade and dissolved in Milli-Q water. Protonophore carbonyl cyanide m-chlorophenyl hydrazone (CCCP) was added at a final concentration of 26 µM to increase the hydrogen permeability of membranes. The tube was placed in a 36 °C water bath, and a magnetic stir bar was added to ensure continuous mixing. A calibrated pH electrode (InLab Expert Pro pH electrode, Mettler-Toledo GmbH, Greifensee, Switzerland) was immersed in the solution to monitor pH changes in real time, with data acquisition and recording performed via software on a connected computer. […] The system was monitored for an additional 5 minutes to observe the effects of the compound on the RBCs. […]
The membrane potential (Vm) was calculated from the recorded pH data using the following equation:Vm [mV] = −61.5 × (pHval − pHlys), where pHval is the pH value measured at a specific time point, and pHlys is the final pH value obtained after cell lysis.

[2] = tested on: free Ca^2+ in healthy red blood cells (RBCs); assay: Intracellular Ca2+ by Fluo-4 flow cytometry in RBCs; format: cell-based, human; settings: for pEC50: maximum average Fluo-4 intensity of all RBCs during recording, Hill fit, flow cytometry, read-out: EC50 (Ca^2+ Measurements)
Procedure: Experiments for the intracellular Ca^2+ detection of RBCs were performed in Tyrode solution containing (in mM) 130 NaCl, 5 KCl, 5 glucose, 10 HEPES, 1 MgCl2, and 1.5 CaCl2. The pH was adjusted to 7.40 with NaOH. All salts were of analytical grade. The cells were loaded with Fluo-4 AM (Molecular Probes, Eugene, OR, USA) at a concentration of 5 μM for 1 hour at 37 °C. Then, the cells were washed three times with Tyrode solution.
Flow cytometry measurements were performed on LSRFortessa (Becton Dickinson, Franklin Lakes, NJ, USA). Washed RBCs from 50 μL of blood were loaded with Fluo-4 as previously described and washed again. For flow cytometry analysis, 10 μL of cell suspension was added to 700 μL of designed buffer and transferred to 5 mL round-bottom polystyrene test tubes (Corning Inc., Corning, NY, USA). For each sample, data recording started 1 minute after the cells were in the designed buffer for 10 minutes. The results were assessed using FlowJo (Becton Dickinson, Franklin Lakes, NJ, USA).

[3] = tested on: membrane potential of RBCs (Gárdos channel activity); set-up: method as in PMID 37492641; settings: RBCs pretreated with the inhibitor; cited from earlier work
[4] = tested on: free Ca^2+ in healthy red blood cells (RBCs); set-up: method as in PMID 29259557, PMID 33208899; settings: cited from earlier work

T1 sequence (Q92508 whole entry): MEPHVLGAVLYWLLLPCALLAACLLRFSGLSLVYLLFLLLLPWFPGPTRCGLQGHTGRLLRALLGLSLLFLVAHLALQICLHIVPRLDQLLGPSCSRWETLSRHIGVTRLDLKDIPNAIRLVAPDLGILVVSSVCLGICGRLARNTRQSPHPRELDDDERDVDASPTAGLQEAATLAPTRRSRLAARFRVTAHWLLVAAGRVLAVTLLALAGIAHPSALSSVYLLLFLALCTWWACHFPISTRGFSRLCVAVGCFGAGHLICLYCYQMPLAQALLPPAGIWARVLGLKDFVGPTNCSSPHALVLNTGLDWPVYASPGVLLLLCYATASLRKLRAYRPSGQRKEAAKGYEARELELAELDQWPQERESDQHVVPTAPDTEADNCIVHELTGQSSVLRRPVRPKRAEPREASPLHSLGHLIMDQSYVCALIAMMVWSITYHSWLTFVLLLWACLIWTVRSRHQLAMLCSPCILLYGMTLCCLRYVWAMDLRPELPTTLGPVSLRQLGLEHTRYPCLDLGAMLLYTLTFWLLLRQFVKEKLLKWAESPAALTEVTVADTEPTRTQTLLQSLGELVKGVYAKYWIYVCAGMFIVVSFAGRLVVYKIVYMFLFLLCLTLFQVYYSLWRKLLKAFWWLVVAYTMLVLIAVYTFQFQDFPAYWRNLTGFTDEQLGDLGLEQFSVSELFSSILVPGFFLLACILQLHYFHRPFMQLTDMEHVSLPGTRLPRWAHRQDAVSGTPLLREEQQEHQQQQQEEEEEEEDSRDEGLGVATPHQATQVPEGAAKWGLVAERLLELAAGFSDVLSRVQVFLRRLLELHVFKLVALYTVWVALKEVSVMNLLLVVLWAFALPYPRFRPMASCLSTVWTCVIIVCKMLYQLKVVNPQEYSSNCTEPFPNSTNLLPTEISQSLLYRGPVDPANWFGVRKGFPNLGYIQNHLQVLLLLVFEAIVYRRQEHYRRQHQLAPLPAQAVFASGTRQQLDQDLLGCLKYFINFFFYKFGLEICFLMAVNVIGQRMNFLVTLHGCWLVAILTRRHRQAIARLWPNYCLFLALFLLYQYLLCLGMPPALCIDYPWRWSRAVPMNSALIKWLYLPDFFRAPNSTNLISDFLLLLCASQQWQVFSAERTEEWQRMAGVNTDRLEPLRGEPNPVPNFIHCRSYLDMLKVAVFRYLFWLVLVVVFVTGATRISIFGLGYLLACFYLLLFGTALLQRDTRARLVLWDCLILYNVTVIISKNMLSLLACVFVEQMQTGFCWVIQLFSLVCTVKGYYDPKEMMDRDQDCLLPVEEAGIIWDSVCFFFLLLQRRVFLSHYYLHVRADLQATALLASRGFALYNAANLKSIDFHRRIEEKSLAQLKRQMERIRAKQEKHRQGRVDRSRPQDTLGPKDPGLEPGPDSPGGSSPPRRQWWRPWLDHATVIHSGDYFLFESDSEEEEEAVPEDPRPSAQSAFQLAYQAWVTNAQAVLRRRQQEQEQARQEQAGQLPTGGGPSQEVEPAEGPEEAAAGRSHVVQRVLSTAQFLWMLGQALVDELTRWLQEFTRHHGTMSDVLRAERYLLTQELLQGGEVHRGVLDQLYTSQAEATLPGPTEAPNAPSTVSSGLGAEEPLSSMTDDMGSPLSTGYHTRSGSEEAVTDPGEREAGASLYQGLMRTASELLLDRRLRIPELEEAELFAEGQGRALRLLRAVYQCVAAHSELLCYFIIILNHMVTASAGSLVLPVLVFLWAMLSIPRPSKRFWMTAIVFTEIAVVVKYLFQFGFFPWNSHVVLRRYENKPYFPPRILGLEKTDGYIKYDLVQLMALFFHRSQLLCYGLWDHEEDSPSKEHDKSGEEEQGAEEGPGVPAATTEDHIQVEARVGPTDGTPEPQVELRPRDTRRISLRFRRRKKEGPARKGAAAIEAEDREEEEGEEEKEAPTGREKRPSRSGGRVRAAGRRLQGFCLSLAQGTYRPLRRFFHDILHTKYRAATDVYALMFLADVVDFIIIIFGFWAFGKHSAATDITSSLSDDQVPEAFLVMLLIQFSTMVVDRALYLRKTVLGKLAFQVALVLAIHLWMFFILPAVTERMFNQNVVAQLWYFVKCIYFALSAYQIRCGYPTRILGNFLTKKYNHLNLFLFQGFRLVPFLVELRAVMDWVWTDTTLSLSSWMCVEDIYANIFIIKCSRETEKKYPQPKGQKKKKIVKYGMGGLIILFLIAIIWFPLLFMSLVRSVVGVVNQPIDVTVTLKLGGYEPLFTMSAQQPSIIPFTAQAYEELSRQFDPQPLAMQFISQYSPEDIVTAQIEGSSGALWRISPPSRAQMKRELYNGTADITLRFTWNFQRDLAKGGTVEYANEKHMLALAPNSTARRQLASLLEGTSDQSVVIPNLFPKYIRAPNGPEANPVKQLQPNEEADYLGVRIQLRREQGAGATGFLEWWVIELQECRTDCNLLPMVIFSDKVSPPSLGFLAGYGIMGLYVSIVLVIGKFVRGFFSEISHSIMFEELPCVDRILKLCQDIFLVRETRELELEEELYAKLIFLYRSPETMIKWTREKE

block of Piezo1 channel activity (Piezo1 channel; 30 μM, applied after cumulative Yoda1 or Yoda2)	responding cells out of total valid cells (Piezo1 channel; 41 nM)	responding cells out of total valid cells (Piezo1 channel; 144 nM)	responding cells out of total valid cells (Piezo1 channel; 442 nM)	responding cells out of total valid cells (Piezo1 channel; 1330 nM)	responding cells out of total valid cells (Piezo1 channel; 4000 nM)	responding cells out of total valid cells (Piezo1 channel; 8000 nM)	responding cells out of total valid cells (any concentration) (Piezo1 channel)	pEC50 (Piezo1 channel)	concentration at which the response plateaus (Piezo1 channel)	pEC50 [1]	Compound	Fluo-4 (Ca^2+) response of RBCs ([2]; 40 nM)	pEC50 [2]	Fluo-4 (Ca^2+) response of RBCs ([2]; 80 nM)	inhibition of hyperpolarisation [3]	inhibition of increased Ca^2+ induced by Yoda1 or mechanical stress [4]
block Piezo1 channel activity completely	–	–	–	–	–	–	–	–	–	–	[Cl][Gd]([Cl])[Cl] [GdCl3]	–	–	–	–	–
–	2/172	9/172	16/172	26/172	30/172	35/172	35/172	5.86	did not plateau	6.52	Clc1cccc(Cl)c1CSc1nnc(-c2cnccn2)s1 [Yoda1]	no obvious response	5.93	–	–	–
–	3/171	12/171	24/171	30/171	30/171	31/171	35/171	6.52	around 4 μM	6.33	O=C(O)c1ccc(-c2nnc(SCc3c(Cl)cccc3Cl)s2)cc1 [Yoda2]	–	6.01	no obvious response	–	–
–	–	–	–	–	–	–	–	–	–	–	GsMTx4	–	–	–	largely inhibited	significantly inhibited
